Assay results taken from paper PMC7440915, “Discovery of surrogate agonists for visceral fat Treg cells that modulate metabolic indices in vivo” (eLife, 2020).
Where no end group is shown, it is not given here.

Key:
HFD-fed B6.CD45.1^+ mice [1] = experiment: Anti-TNFα and Fat1562 immunization in HFD-fed mice with vTreg53 Treg transfer; assay type: in vivo, mouse; settings: n ≥ 5, anti-TNFα 10 μg/g i.p. twice a week
Description: (§1) Figure 7. Immunization with Fat1562 following vTreg53 Treg transfer ameliorates HFD-induced insulin resistance. (A–F) Metabolic indices of mice treated as in Figure 6A (n ≥ 7). (A) Body weight. (B) Insulin tolerance test (ITT). (C) Area over curve for ITT analysis. (D) Glucose tolerance test (GTT). (E) Area under curve for GTT analysis. (F) Plasma insulin levels after 6 hr of fasting. Data shown are representative of at least two independent experiments. (G) Scheme of the anti-TNFα experiment. (H) Number of total Treg cells in VAT (n ≥ 5). (I) Number of CD11c^hi inflammatory macrophages in VAT (n ≥ 5). (J) ITT (n ≥ 5). (K) Area over curve for ITT analysis (n ≥ 5). Data are mean ± SD. Figure 7—figure supplement 1. Absolute blood glucose levels. ITT analysis of mice transferred with vTreg53 TCR-tg Tregs and immunized with adjuvant/Fat1562 or adjuvant alone. Data shown are representative of at least two independent experiments (n ≥ 5). [drawing 7]
12-week-old B6.CD45.1^+ mice were fed with HFD and injected intraperitoneally with 10 μg/g body weight anti-TNFα (XT3.11, BioXCell) or isotype control IgG (HRPN, BioXCell) twice a week for 6 weeks, transferred with 0.4 million Treg cells from pooled Spl/LNs of 6-8wk-old male CD45.2^+ Tg^+ Foxp3-GFP^KI/y mice. […] One week after the IFA/peptides injection, ITT (0.75unit/kg insulin) was performed and the composition of different immunocytes were determined.
(§2) For GTT, mice were fasted for 15 hr overnight, weighed, and tested for fasting blood-glucose concentrations. […] Blood-glucose levels were measured before and 20, 40, 60, 90, and 120 min after glucose injection. […] Blood-glucose levels were measured before and 20, 40, 60, 90, and 120 min after insulin injection, and were normalized to the blood-glucose levels before insulin injection. The area under the curve (for GTT) or area over the curve (for ITT) were calculated using GraphPad Prism 7.0.

HFD-fed B6.CD45.1^+ mice [2] = experiment: Metabolic indices (ITT, GTT, fasting insulin, body weight) in HFD-fed mice after vTreg53 Treg transfer and immunization; assay type: in vivo, mouse; settings: n ≥ 7
Description: as §1
To assess early Treg proliferation following peptide stimulation in vivo, 0.4 million Treg cells were sorted from pooled Spl and LNs of 6-8wk-old male CD45.2^+ Tg^+ Foxp3-GFP^KI/y mice by Moflo, labeled by the CellTrace Violet dye (ThermoFisher Scientific), and were i.v.-injected into 6-8wk old male B6.CD45.1^+ mice. The next day, the recipient mice were injected with 200 µg peptides emulsified in CFA (CFA/peptides) s.c. on the lower back. Proliferation of clonotype^+ Tregs in the spleen was determined three days later. To examine the expansion of VAT-Treg cells by peptide immunization, we sorted 0.4 million Treg cells from pooled Spl/LNs of 6-8wk-old male CD45.2^+ Tg^+ Foxp3-GFP^KI/y mice and transferred them i.v. into 6-8wk old male B6.CD45.1^+ mice. Six weeks later, the recipient mice were immunized with 200 µg CFA/peptides s.c. on the lower back, and one week later were boosted with 100 μg IFA/peptides i.p. After another week, clonotype^+ CD45.2^+ Treg cells from the Spl/LNs or VAT of recipient mice were analyzed by flow cytometry and double-sorted for ultra-low-input RNA-seq. […] One week after the IFA/peptides injection, metabolic parameters (GTT, ITT, fasting plasma insulin levels) and the composition of different immunocytes were determined.
as §2

In the case of TMYKNPRPMAATG [Fat1562], the “insulin sensitivity” value (HFD-fed B6.CD45.1^+ mice [1]; ITT, 0.75unit/kg insulin) is reported as “slightly improved insulin sensitivity”, the “number of CD11c^hi pro-inflammatory macrophages in VAT” value (HFD-fed B6.CD45.1^+ mice [1]; VAT) is reported as “reduced the number of CD11c^hi pro-inflammatory macrophages” and the “number of VAT-Treg cells” value (HFD-fed B6.CD45.1^+ mice [1]; VAT) is reported as “moderately increased the numbers of VAT-Treg cells”. For the same sequence, the “glucose tolerance” value (HFD-fed B6.CD45.1^+ mice [2]; GTT, 2.0 g glucose per kg i.p., 15 hr fast) was “promoted glucose tolerance”, the “insulin sensitivity” value (HFD-fed B6.CD45.1^+ mice [2]; ITT, 0.6 U insulin per kg i.p., 6 hr fast) was “improved systemic insulin sensitivity” and the “body weight” value (HFD-fed B6.CD45.1^+ mice [2]; adjuvant/Fat1562 vs adjuvant alone) was “similar”. For the same sequence, the “fasting plasma insulin levels” value (HFD-fed B6.CD45.1^+ mice [2]; after 6 hr of fasting) was “reduced fasting plasma insulin levels”.
